Experimental findings from US12281102B2, “Inhibitors of APOL1 and methods of using same” (Vertex Pharmaceuticals Incorporated, priority 2020, dated 2025) are described below.

For orientation: IC50 means the concentration that gives 50% inhibition.

The first assay addresses T1, G1 APOL1 (Homo sapiens, UniProt O14791, I384M/S342G).
T1 construct: expressed in transfected cells
T1 sequence (O14791 28-398 S342G/I384M): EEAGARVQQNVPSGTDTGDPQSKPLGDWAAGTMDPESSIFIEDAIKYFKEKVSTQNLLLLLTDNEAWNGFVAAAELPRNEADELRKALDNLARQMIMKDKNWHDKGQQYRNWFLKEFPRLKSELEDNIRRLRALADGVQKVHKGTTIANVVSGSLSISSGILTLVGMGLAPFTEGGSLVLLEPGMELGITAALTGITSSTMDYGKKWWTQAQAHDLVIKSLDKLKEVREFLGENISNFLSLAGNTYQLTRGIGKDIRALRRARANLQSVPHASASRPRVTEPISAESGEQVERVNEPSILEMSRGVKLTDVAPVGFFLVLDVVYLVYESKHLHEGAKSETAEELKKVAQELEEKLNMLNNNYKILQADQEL
As to the kind of experiment: Acute APOL1 Thallium Assay with inducible stable clones of HEK 293 cells. Particulars: HEK 293 T-Rex inducible stable clone expressing G1 APOL1; read-out: Thallium Assay (IC50). The format is cell-based. From the text:
Acute APOL1 Thallium Assay with Inducible Stable Clones of HEK 293 Cells
Apolipoprotein L1 (APOL1) proteins form potassium-permeable cation pores in the plasma membrane. APOL1 risk variants (G1 and G2) induce greater potassium flux than G0 in HEK293 cells. This assay exploits the permeability of thallium (T1+) through ligand-gated potassium channels. The dye produces a bright fluorescent signal upon binding to T1+ conducted through potassium channels. The intensity of the T1+ signal is proportional to the number of potassium channels in the open state. Therefore, it provides a functional indication of the potassium channel activities. During the initial dye-loading step, the T1+ indicator dye as an acetoxymethyl (AM) ester enters the cells through passive diffusion. Cytoplasm esterases cleave the AM ester and relieve its active thallium-sensitive form. The cells are then stimulated with T1+. The increase of fluorescence in the assay represents the influx of T1+ into the cell specifically through the potassium channel (i.e. through APOL1 pores), providing a functional measurement of potassium channel/pore activity. The Thallium assay is conducted with cells expressing G1 APOL1.
APOL1 Cell Line (HEK T-Rex Stable Inducible Cell Line)
• HEK T-Rex System • Tetracycline (Tet) inducible mammalian expression system. • Stably express the Tet repressor to regulate transcription. • Expression under the full-length CMV promoter. • APOL1 stable inducible cell line Clone used: G1 DC3.25 Tissue Culture Media Cell Culture Medium • DMEM+10% FBS+P/S+5 μg/mL blasticidin+1 μg/mL puromycin. • 500 mL DMEM+55 mL FBS+5 mL P/S+280 μL blasticidin S HCl (10 mg/mL)+56 μL puromycin (10 mg/mL). Cell Assay Medium • DMEM with 2% FBS+penicillin streptomycin. Reagents:
Instruments and Equipment • Nuaire cell culture hood, Cat. No. 540-600 • 37° C./5% CO2 incubator link to robotic arm, Liconic: STX110 • Molecular Devices FLIPR^Tetra High throughput cellular screening system, Cat. No. FT0324, Molecular Devices • ThermoFisher MultiDrop 384, Cat. No. 5840300 • Biotek Microfill, Cat. No. ASF1000A-4145 • BioRad TC10 cell counter, Cat. No. 145-0010 Assay Procedures Cells Scaled Up from Frozen Vials • APOL1 G1 3.25 (HEK293 T-Rex) frozen vials: 5 million cells per vial • Step 1, Day 1: Defrost frozen vial into T-225. • Step 2, Day 5: (when 85% confluent): Split one T-225 at 3×10^6 cells per flask. • Step 3, Day 8: Splits cells to set up for the assay plates as described below. Cell Culture
T-Rex APOL1 HEK cells are split twice per week to keep the confluence state below 85% of the culture flask surface area. Cells can be kept until passage 25.
• DMEM high glucose+10% FBS, +P/S, +5 μg/mL blasticidin, +1 μg/mL puromycin. • 500 mL DMEM, +55 mL FBS, +5 mL P/S, +280 μL blasticidin 10 mg/mL, +56 μL Puromycin 10 mg/mL. Assay Media • Opti-MEM reduced serum medium from Invitrogen. Day 1 Preparation of Cell Assay Plates • Culture medium is removed from the x cm^2 T-flask by aspiration. • The cell monolayer is rinsed with PBS 1× at room temperature. PBS is removed by aspiration. • Cells are trypsinized using Trypsin. • The flasks are incubated at room temperature for 2-3 minutes. • Complete DMEM medium is then added. Cell suspension is then transferred to a 50 mL Falcon polypropylene tube. • Cells are then counted using a BioRad TC10 cell counter and the required amount of cells are centrifuged at 1200 RPM for 5 minutes. Required amount is 1.3×10^6 cells/mL APOL1 T-Rex HEK cells. • The pellet is suspended in the assay medium. • Using the MultiDrop, add 20 μL to each well (corresponds to 26000 cells total per well) of a 384-well black, transparent, flat bottom Poly-D coated plate. • Tetracycline as prepared in the following section is added to the cells before plating to induce APOL1 expression. • Plates are left at room temperature for 20 to 30 minutes before incubation at 37° C. and 5% CO2. […]
For `O=C(CCN1CCCC1=O)N[C@H]1C[C@@H](c2c(-c3ccc(F)cc3)[nH]c3c(F)cc(F)cc32)C1` [Compound 48], the IC50 was greater than 1000 nM. In the case of `Cn1nccc1CC(=O)N[C@H]1C[C@@H](c2c(-c3ccc(F)cc3)[nH]c3c(F)cc(F)cc32)C1` [Compound 49], the IC50 was greater than 1000 nM.

As to `O=C(CC1COC1)N[C@H]1C[C@@H](c2c(-c3ccc(F)cc3)[nH]c3c(F)cc(F)cc32)C1` [Compound 50], the concentration for half-maximal inhibition (IC50) is greater than 1000 nM.

As for `NS(=O)(=O)CCC(=O)N[C@H]1C[C@@H](c2c(-c3ccc(F)cc3)[nH]c3c(F)cc(F)cc32)C1` [Compound 51], the IC50 was greater than 1000 nM. Still for that read-out and setting: the result for `CN1CCC(CC(=O)N[C@H]2C[C@@H](c3c(-c4ccc(F)cc4)[nH]c4c(F)cc(F)cc43)C2)CC1` [Compound 52] reads greater than 1000 nM. Same read-out and setting: the value for `O=C(CC1CCCOC1)N[C@H]1C[C@@H](c2c(-c3ccc(F)cc3)[nH]c3c(F)cc(F)cc32)C1` (stereo partly shown) [Compound 53] was greater than 1000 nM; that for `CS(=O)(=O)CCC(=O)N[C@H]1C[C@@H](c2c(-c3ccc(F)cc3)[nH]c3c(F)cc(F)cc32)C1` [Compound 54] was greater than 1000 nM. The same measure, in the same setting: the result for `O=C(CC(=O)N1CCOCC1)N[C@H]1C[C@@H](c2c(-c3ccc(F)cc3)[nH]c3c(F)cc(F)cc32)C1` [Compound 56] reads 250 to 1000 nM; that for `O=C(CN1CCOCC1)N[C@H]1C[C@@H](c2c(-c3ccc(F)cc3)[nH]c3c(F)cc(F)cc32)C1` [Compound 57], greater than 1000 nM.

For the molecule `NS(=O)(=O)CCCC(=O)N[C@H]1C[C@@H](c2c(-c3ccc(F)cc3)[nH]c3c(F)cc(F)cc32)C1` [Compound 58], the IC50 lay in the range of 250 to 1000 nM. In the case of `CN(C)CCC(=O)N[C@H]1C[C@@H](c2c(-c3ccc(F)cc3)[nH]c3c(F)cc(F)cc32)C1` [Compound 59], the IC50 was greater than 1000 nM. Same read-out and setting: the result for `CN(C)C(=O)CCC(=O)N[C@H]1C[C@@H](c2c(-c3ccc(F)cc3)[nH]c3c(F)cc(F)cc32)C1` [Compound 60] reads greater than 1000 nM; that for `O=C(CCN1CCCCC1)N[C@H]1C[C@@H](c2c(-c3ccc(F)cc3)[nH]c3c(F)cc(F)cc32)C1` [Compound 61], greater than 1000 nM. On the same count and under the same terms, the result for `COCCC(=O)N[C@H]1C[C@@H](c2c(-c3ccc(F)cc3)[nH]c3c(F)cc(F)cc32)C1` [Compound 62] reads greater than 1000 nM. On the same count and under the same terms, the value for `Cc1nccn1CC(=O)N[C@H]1C[C@@H](c2c(-c3ccc(F)cc3)[nH]c3c(F)cc(F)cc32)C1` [Compound 63] was greater than 1000 nM; that for `CC1(C)CCC(C(=O)N[C@H]2C[C@@H](c3c(-c4ccc(F)cc4)[nH]c4c(F)cc(F)cc43)C2)N1` (stereo partly shown) [Compound 64] was greater than 1000 nM; that for `O=C1CC(C(=O)N[C@H]2C[C@@H](c3c(-c4ccc(F)cc4)[nH]c4c(F)cc(F)cc43)C2)C(=O)N1` (stereo partly shown) [Compound 65] was greater than 1000 nM. In the case of `N#CCC(=O)N[C@H]1C[C@@H](c2c(-c3ccc(F)cc3)[nH]c3c(F)cc(F)cc32)C1` [Compound 67], the IC50 is greater than 1000 nM.

As for `CC(F)(F)C(=O)N[C@H]1C[C@@H](c2c(-c3ccc(F)cc3)[nH]c3c(F)cc(F)cc32)C1` [Compound 68], the IC50 is 250 to 1000 nM. Regarding `O=C1NCCC1C(=O)N[C@H]1C[C@@H](c2c(-c3ccc(F)cc3)[nH]c3c(F)cc(F)cc32)C1` (stereo partly shown) [Compound 69], the IC50 was greater than 1000 nM. In the case of `O=C1CC(C(=O)N[C@H]2C[C@@H](c3c(-c4ccc(F)cc4)[nH]c4c(F)cc(F)cc43)C2)CC(=O)N1` [Compound 70], the IC50 was greater than 1000 nM.

`O=C(N[C@H]1C[C@@H](c2c(-c3ccc(F)cc3)[nH]c3c(F)cc(F)cc32)C1)C1COC1` [Compound 71]: the IC50 lay in the range of 250 to 1000 nM. Same read-out and setting: the value for `O=C1CC(CC(=O)N[C@H]2C[C@@H](c3c(-c4ccc(F)cc4)[nH]c4c(F)cc(F)cc43)C2)CC(=O)N1` [Compound 72] was greater than 1000 nM. With `O=C(N[C@H]1C[C@@H](c2c(-c3ccc(F)cc3)[nH]c3c(F)cc(F)cc32)C1)c1cn[nH]c1` [Compound 73], the IC50 lay within 250 to 1000 nM.

For `CC(C)(O)C(=O)N[C@H]1C[C@@H](c2c(-c3ccc(F)cc3)[nH]c3c(F)cc(F)cc32)C1` [Compound 74], the IC50 fell in the range of 250 to 1000 nM.

For the molecule `CNCCC(=O)N[C@H]1C[C@@H](c2c(-c3ccc(F)cc3)[nH]c3c(F)cc(F)cc32)C1` [Compound 75], the half-maximal inhibitory concentration (IC50) lay within 250 to 1000 nM. In the case of `O=C(N[C@H]1C[C@@H](c2c(-c3ccc(F)cc3)[nH]c3c(F)cc(F)cc32)C1)C1(O)CC1` [Compound 76], the IC50 lay within 250 to 1000 nM. Still for that read-out and setting: the value for `CC(C)(C)OC(=O)NCC(=O)N[C@H]1C[C@@H](c2c(-c3ccc(F)cc3)[nH]c3c(F)cc(F)cc32)C1` [Compound 78] was greater than 1000 nM; that for `CCCS(=O)(=O)N[C@H]1C[C@@H](c2c(-c3ccc(F)cc3)[nH]c3c(F)cc(F)cc32)C1` [Compound 79, N-((1s,3s)-3-(5,7-difluoro-2-(4-fluorophenyl)-1H-indol-3-yl)cyclobutyl)propane-1-sulfonamide] was greater than 1000 nM. On the same count and under the same terms, the value for `O=S(=O)(N[C@H]1C[C@@H](c2c(-c3ccc(F)cc3)[nH]c3c(F)cc(F)cc32)C1)c1c[nH]cn1` [Compound 80] was greater than 1000 nM; that for `Cn1cc(S(=O)(=O)N[C@H]2C[C@@H](c3c(-c4ccc(F)cc4)[nH]c4c(F)cc(F)cc43)C2)cn1` [Compound 81] was greater than 1000 nM. In the case of `CCS(=O)(=O)N[C@H]1C[C@@H](c2c(-c3ccc(F)cc3)[nH]c3c(F)cc(F)cc32)C1` [Compound 82], the IC50 is greater than 1000 nM.

Take `O=S(=O)(N[C@H]1C[C@@H](c2c(-c3ccc(F)cc3)[nH]c3c(F)cc(F)cc32)C1)C1COC1` [Compound 83]: the IC50 was greater than 1000 nM. In the case of `O=S(=O)(N[C@H]1C[C@@H](c2c(-c3ccc(F)cc3)[nH]c3c(F)cc(F)cc32)C1)c1cn[nH]c1` [Compound 84], the concentration for half-maximal inhibition (IC50) is greater than 1000 nM.

In the case of `Cn1ccnc1S(=O)(=O)N[C@H]1C[C@@H](c2c(-c3ccc(F)cc3)[nH]c3c(F)cc(F)cc32)C1` [Compound 85], the 50% inhibitory concentration (IC50) was greater than 1000 nM. Still for that read-out and setting: the value for `O=S(=O)(N[C@H]1C[C@@H](c2c(-c3ccc(F)cc3)[nH]c3c(F)cc(F)cc32)C1)C1CCOCC1` [Compound 86] was greater than 1000 nM; that for `N#CCS(=O)(=O)N[C@H]1C[C@@H](c2c(-c3ccc(F)cc3)[nH]c3c(F)cc(F)cc32)C1` [Compound 87] was greater than 1000 nM; that for `O=C(N[C@H]1C[C@H](c2c(-c3ccc(F)cc3)[nH]c3c(F)cc(F)cc32)C1)OCc1ccccc1` [Compound 88] was greater than 1000 nM. In the case of `O=C1CCC(C(=O)N[C@H]2C[C@H](c3c(-c4ccc(F)cc4)[nH]c4c(F)cc(F)cc43)C2)CN1` (stereo partly shown) [Compound 90], the half-inhibitory concentration (IC50) is greater than 1000 nM.

Staying with this assay, now noted: Thallium Assay (IC50), HEK 293 T-Rex inducible stable clone expressing G1 APOL1.
`N[C@H]1C[C@H](c2c(-c3ccc(F)cc3)[nH]c3c(F)cc(F)cc32)C1` [Compound 89, (1r,3r)-3-[5,7-difluoro-2-(4-fluorophenyl)-1H-indol-3-yl]cyclobutanamine] had an IC50 of less than 250 nM.
